Source: paper PMC6100582 (Molecules : A Journal of Synthetic Chemistry and Natural …, 2018)

What was measured:
Assay in all cases: Minimum biofilm eradication assay
[1] = test system: Streptococcus pneumonia MFBF 10373; type: cell-based, Streptococcus pneumoniae
Experimental: (§1) MBECs of fumardiamides 4a–f and succindiamides 5a–f were determined as follows. Each well (96-well plate) was filled with 100 µl of bacterial (10^7 CFU/mL) or yeast (5 × 10^6 CFU/mL) suspension. When the inhibition of yeast biofilm formation was tested, the wells were pre-treated with fetal bovine serum (FBS) (250 µl per well). Negative controls contained broth only. Positive controls were performed using standard antimicrobial drugs gentamycin (Gen) and Amph, respectively. […] Following incubation period, each well was aspirated, washed three times and vigorously shaken to remove all non-adherent bacteria/yeast. The remaining attached cells were fixed with methanol (15 min) and the plates were left to dry overnight. Formed biofilm was stained with crystal violet (1%, 5 min). Excess stain was rinsed by placing the plate under running tap water and the plates were left to dry. Adherent cells were solubilized using ethanol. The absorbance was read at 570 nm. The MBEC value represents the lowest dilution of a compound at which bacteria fail to grow.

[2] = test system: Proteus mirabilis MFBF 10430; type: cell-based
Experimental: as §1

[3] = test system: Serratia marcescens ATCC 10905; type: cell-based
Experimental: as §1

[4] = test system: Pseudomonas aeruginosa ATCC 27853; type: cell-based
Experimental: as §1

[5] = test system: Bacillus cereus ATCC 11778; type: cell-based
Experimental: as §1

[6] = test system: Staphylococcus aureus ATCC 6538; type: cell-based
Experimental: as §1

[7] = test system: Salmonella enteritidis MFBF 11945; type: cell-based
Experimental: as §1

[8] = test system: Enterococcus faecalis ATCC 29212; type: cell-based
Experimental: as §1

[9] = test system: Escherichia coli ATCC 10536; type: cell-based
Experimental: as §1

[10] = test system: Acinetobacter baumannii MFBF 10913; type: cell-based
Experimental: as §1

[11] = test system: Bacillus subtilis ATCC 6633; type: cell-based
Experimental: as §1

**Q.** Which results are given for gentamycin [reference compound]?
**A.** MBEC [1]: 25 µg/mL; MBEC [2]: 50 µg/mL; MBEC [3]: 50 µg/mL; MBEC [4]: 50 µg/mL; MBEC [5]: 50 µg/mL; MBEC [6]: 12.5 µg/mL; MBEC [7]: 50 µg/mL; MBEC [8]: 50 µg/mL; MBEC [9]: 25 µg/mL; MBEC [10]: 25 µg/mL; MBEC [11]: 50 µg/mL
